Counter-ions that a name gives are not always drawn. Like-named read-outs stand apart in the source and are kept apart here.
Legend:
[1] = biological target: T1, human JAK1 (a.a. 837-1142) (Homo sapiens, UniProt P23458); assay: In vitro JAK kinase assay (HTRF, phosphorylation of biotinylated peptide), JAK1; type: biochemical
T1 construct: The catalytic domains of human JAK1 (a.a. 837-1142); His tag (N); made in house; host or cells: insect cells (baculovirus)
In short: (§1)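 IC50 from HTRF detection (Eu-Py20 antibody, SA-APC, 40 min) after EDTA quench. Reactions ran 1 h at room temperature with 500 nM biotinylated peptide in Tris pH 7.8 buffer with NaCl, DTT, BSA; ATP 90 μM for JAK1, 30 μM for JAK2 (Km), or 1 mM. Enzymes: His-tagged catalytic domains from insect cells.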

Jak2 (a.a. 828-1132) = biological target: T2, Jak2 (a.a. 828-1132) (Homo sapiens, UniProt O60674); assay: In vitro JAK kinase assay (HTRF, phosphorylation of biotinylated peptide), JAK2; type: biochemical
T2 construct: Jak2 (a.a. 828-1132); His tag (N); made in house; host or cells: insect cells (baculovirus)
T2 sequence (O60674 828-1132): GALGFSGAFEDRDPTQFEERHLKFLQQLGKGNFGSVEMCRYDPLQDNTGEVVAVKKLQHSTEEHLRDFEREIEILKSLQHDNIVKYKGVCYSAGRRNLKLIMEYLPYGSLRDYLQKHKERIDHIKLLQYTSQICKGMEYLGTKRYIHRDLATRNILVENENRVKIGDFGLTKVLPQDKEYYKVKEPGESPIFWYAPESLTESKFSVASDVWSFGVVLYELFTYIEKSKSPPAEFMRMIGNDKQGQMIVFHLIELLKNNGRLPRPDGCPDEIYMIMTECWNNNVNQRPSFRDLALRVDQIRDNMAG
In short: as §1

[2] = 1 mM ATP, Examples 12-91, read-out: JAK1 IC50 (nM) @ 1 mM ATP
[3] = 1 mM ATP, Examples 12-91, read-out: JAK2 IC50 (nM) @ 1 mM ATP
[4] = 1 mM ATP, Examples 92-162, read-out: JAK1 IC50 (nM) @ 1 mM ATP
[5] = 1 mM ATP, Examples 92-162, read-out: JAK2 IC50 (nM) @ 1 mM ATP
[6] = 1 mM ATP, Examples 1-11, read-out: IC50 (nM) @ 1 mM ATP JAK1
[7] = 1 mM ATP, Examples 1-11, read-out: IC50 (nM) @ 1 mM ATP JAK2

T1 sequence (P23458 849-1154): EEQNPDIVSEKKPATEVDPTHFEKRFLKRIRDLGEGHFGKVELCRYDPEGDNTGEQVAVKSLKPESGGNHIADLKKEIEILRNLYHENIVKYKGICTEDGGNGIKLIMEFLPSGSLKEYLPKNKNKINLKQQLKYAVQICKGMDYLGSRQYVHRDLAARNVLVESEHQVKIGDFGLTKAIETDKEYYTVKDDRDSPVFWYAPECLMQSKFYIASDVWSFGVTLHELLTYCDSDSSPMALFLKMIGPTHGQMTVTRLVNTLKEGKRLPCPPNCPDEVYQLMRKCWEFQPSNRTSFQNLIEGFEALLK

Molecule: N#CCC(CN1CCN(C(=O)c2cccc(OC(F)(F)F)c2F)CC1)n1cc(-c2ncnc3[nH]ccc23)cn1 (stereo not drawn) [Example 51, 3-(4-(7H-pyrrolo[2,3-d]pyrimidin-4-yl)1H-pyrazol-1-yl)-4-(4-(2-fluoro-3-(trifluoromethoxy)benzoyl)piperazin-1-yl)butanenitrile]
- IC50 [1, 2]: 10 to 50 nM
- IC50 (Jak2 (a.a. 828-1132); [3]): 10 to 50 nM

Molecule: CCC(CN1CCN(C(=O)c2ccccc2O)CC1)n1cc(-c2ncnc3[nH]ccc23)cn1 (stereo not drawn) [Example 117, 2-[(4-{2-[4-(7H-pyrrolo[2,3-d]pyrimidin-4-yl)-1H-pyrazol-1-yl]butyl}piperazin-1-yl)carbonyl]phenol]
- IC50 [1, 4]: 20 to 50 nM
- IC50 (Jak2 (a.a. 828-1132); [5]): 50 to 100 nM

Molecule: N#CCC(CN1CCN(C(=O)Nc2ccccc2C(F)(F)F)CC1)n1cc(-c2ncnc3[nH]ccc23)cn1 (stereo not drawn) [Example 76, 4-(2-(4-(7H-pyrrolo[2,3-d]pyrimidin-4-yl)-1H-pyrazol-1-yl)-3-cyanopropyl)-N-(2-(trifluoromethyl)phenyl)piperazine-1-carboxamide]
- IC50 [1, 2]: 10 to 50 nM
- IC50 (Jak2 (a.a. 828-1132); [3]): > 100 nM

Molecule: N#CCC(CN1CCN(C(=O)c2ccc(C#N)cc2F)CC1C(F)F)n1cc(-c2ncnc3[nH]ccc23)cn1 (single isomer, unassigned) [Example 159—peak 1, 4-{[4-{3-cyano-2-[4-(7H-pyrrolo[2,3-d]pyrimidin-4-yl)-1H-pyrazol-1-yl]propyl}-3-(difluoromethyl)piperazin-1-yl]carbonyl}-3-fluorobenzonitrile]
- IC50 [1, 4]: > 100 nM
- IC50 (Jak2 (a.a. 828-1132); [5]): > 100 nM

Molecule: Cc1c(Nc2ccccc2F)ncnc1N1CCC(C(CC#N)n2cc(-c3ncnc4[nH]ccc34)cn2)CC1 (stereo not drawn) [Example 147, 3-(4-(7H-pyrrolo[2,3-d]pyrimidin-4-yl)-1H-pyrazol-1-yl)-3-(1-(6-(2-fluorophenylamino)-5-methylpyrimidin-4-yl)piperidin-4-yl)propanenitrile]
- IC50 [1, 4]: < 20 nM
- IC50 (Jak2 (a.a. 828-1132); [5]): > 100 nM

Molecule: Cc1c(Nc2cccc(F)c2)ncnc1N1CCC(C(CC#N)n2cc(-c3ncnc4[nH]ccc34)cn2)CC1 (stereo not drawn) [Example 148, 3-(4-(7H-pyrrolo[2,3-d]pyrimidin-4-yl)-1H-pyrazol-1-yl)-3-(1-(6-(3-fluorophenylamino)-5-methylpyrimidin-4-yl)piperidin-4-yl)propanenitrile]
- IC50 [1, 4]: < 20 nM
- IC50 (Jak2 (a.a. 828-1132); [5]): 50 to 100 nM

Molecule: N#CCC(CN1CCN(S(=O)(=O)c2cccnc2)CC1)n1cc(-c2ncnc3[nH]ccc23)cn1 (stereo not drawn) [Example 65, 3-(4-(7H-pyrrolo[2,3-d]pyrimidin-4-yl)-1H-pyrazol-1-yl)-4-(4-(pyridin-3-ylsulfonyl)piperazin-1-yl)butanenitrile]
- IC50 [1, 2]: < 10 nM
- IC50 (Jak2 (a.a. 828-1132); [3]): 10 to 50 nM

Molecule: N#CCC(CN1CCN(C(=O)c2cc(F)cc(Cl)c2)CC1)n1cc(-c2ncnc3[nH]ccc23)cn1 (stereo not drawn) [Example 46, 3-(4-(7H-pyrrolo[2,3-d]pyrimidin-4-yl)-1H-pyrazol-1-yl)-4-(4-(3-chloro-5-fluorobenzoyl)piperazin-1-yl)butanenitrile trifluoroacetate salt]
- IC50 [1, 2]: < 10 nM
- IC50 (Jak2 (a.a. 828-1132); [3]): 10 to 50 nM

Molecule: N#CCC(CN1CCN(C(=O)c2ccc(C#N)cc2)CC1)n1cc(-c2ncnc3[nH]ccc23)cn1 (stereo not drawn) [Example 2, 4-[(4-{3-cyano-2-[4-(7H-pyrrolo[2,3-d]pyrimidin-4-yl)-1H-pyrazol-1-yl]propyl}piperazin-1-yl)carbonyl]benzonitrile]
- IC50 [1, 6]: < 10 nM
- IC50 ([1]; Km ATP (90 μM for Jak1), Examples 1-11, read-out: IC50 (nM) @ Km ATP JAK1): < 10 nM
- IC50 (Jak2 (a.a. 828-1132); [7]): > 20 nM
- IC50 (Jak2 (a.a. 828-1132); Km ATP (30 μM for Jak2), Examples 1-11, read-out: IC50 (nM) @ Km ATP JAK2): 10 to 20 nM

Molecule: CCC(CN1CCN(S(=O)(=O)c2cccs2)CC1)n1cc(-c2ncnc3[nH]ccc23)cn1 (stereo not drawn) [Example 134, 4-(1-(1-(4-(thiophen-2-ylsulfonyl)piperazin-1-yl)butan-2-yl)-1H-pyrazol-4-yl)-7H-pyrrolo[2,3-d]pyrimidine]
- IC50 [1, 4]: < 20 nM
- IC50 (Jak2 (a.a. 828-1132); [5]): 20 to 50 nM

Molecule: COc1c(F)cc(C(=O)N2CCN(CC(CC#N)n3cc(-c4ncnc5[nH]ccc45)cn3)CC2)cc1F (stereo not drawn) [Example 55, 3-(4-(7H-pyrrolo[2,3-d]pyrimidin-4-yl)-1H-pyrazol-1-yl)-4-(4-(3,5-difluoro-4-methoxybenzoyl)piperazin-1-yl)butanenitrile]
- IC50 [1, 2]: 10 to 50 nM
- IC50 (Jak2 (a.a. 828-1132); [3]): 50 to 100 nM

Molecule: 4-(4-(2-(4-(7H-pyrrolo[2,3-d]pyrimidin-4-yl)-1H-pyrazol-1-yl)-3-cyanopropyl)piperazine-1-carbonyl)-3-hydroxybenzonitrile [Example 77]
- IC50 [1, 2]: < 10 nM
- IC50 (Jak2 (a.a. 828-1132); [3]): 10 to 50 nM

Molecule: COCC1CN(C(=O)c2ccc(C#N)cc2F)CCN1CC(CC#N)n1cc(-c2ncnc3[nH]ccc23)cn1 (single isomer, unassigned) [Example 157—peak 3, 4-{[4-{3-cyano-2-[4-(7H-pyrrolo[2,3-d]pyrimidin-4-yl)-1H-pyrazol-1-yl]propyl}-3-(methoxymethyl)piperazin-1-yl]carbonyl}-3-fluorobenzonitrile]
- IC50 [1, 4]: > 100 nM
- IC50 (Jak2 (a.a. 828-1132); [5]): > 100 nM

Molecule: N#CCC(CN1CCCN(S(=O)(=O)c2ccccc2C(F)(F)F)CC1)n1cc(-c2ncnc3[nH]ccc23)cn1 (stereo not drawn) [Example 109, 3-[4-(7H-pyrrolo[2,3-d]pyrimidin-4-yl)-1H-pyrazol-1-yl]-4-(4-{[2-(trifluoromethyl)phenyl]sulfonyl}-1,4-diazepan-1-yl)butanenitrile]
- IC50 [1, 4]: 20 to 50 nM
- IC50 (Jak2 (a.a. 828-1132); [5]): > 100 nM

Molecule: COc1ccc(OC)c(S(=O)(=O)N2CCCN(CC(CC#N)n3cc(-c4ncnc5[nH]ccc45)cn3)CC2)c1 (stereo not drawn) [Example 111, 4-{4-[(2,5-dimethoxyphenyl)sulfonyl]-1,4-diazepan-1-yl}-3-[4-(7H-pyrrolo[2,3-d]pyrimidin-4-yl)-1H-pyrazol-1-yl]butanenitrile]
- IC50 [1, 4]: 20 to 50 nM
- IC50 (Jak2 (a.a. 828-1132); [5]): 50 to 100 nM

Molecule: CCC(CN1CCN(S(=O)(=O)c2ccc(C#N)cc2)CC1)n1cc(-c2ncnc3[nH]ccc23)cn1 (stereo not drawn) [Example 129, 4-(4-(2-(4-(7H-pyrrolo[2,3-d]pyrimidin-4-yl)-1H-pyrazol-1-yl)butyl)piperazin-1-ylsulfonyl)benzonitrile]
- IC50 [1, 4]: 20 to 50 nM
- IC50 (Jak2 (a.a. 828-1132); [5]): 50 to 100 nM

Molecule: CCC(CN1CCN(C(=O)c2cccc(F)c2F)CC1)n1cc(-c2ncnc3[nH]ccc23)cn1 (stereo not drawn) [Example 120, (4-(2-(4-(7H-pyrrolo[2,3-d]pyrimidin-4-yl)-1H-pyrazol-1-yl)butyl)piperazin-1-yl)(2,3-difluorophenyl)methanone]
- IC50 [1, 4]: 20 to 50 nM
- IC50 (Jak2 (a.a. 828-1132); [5]): 50 to 100 nM

Molecule: CC(CN1CCN(S(=O)(=O)c2ccccc2C#N)CC1)n1cc(-c2ncnc3[nH]ccc23)cn1 (stereo not drawn) [Example 94, 2-[(4-{2-[4-(7H-pyrrolo[2,3-d]pyrimidin-4-yl)-1H-pyrazol-1-yl]propyl}piperazin-1-yl)sulfonyl]benzonitrile]
- IC50 [1, 4]: 20 to 50 nM
- IC50 (Jak2 (a.a. 828-1132); [5]): > 100 nM

Molecule: C[C@H]1CN(CC(CC#N)n2cc(-c3ncnc4[nH]ccc34)cn2)CCN1C(=O)c1ccc(C#N)cc1F (mixture of isomers) [Example 162, 4-[((2S)-4-{3-cyano-2-[4-(7H-pyrrolo[2,3-d]pyrimidin-4-yl)-1H-pyrazol-1-yl]propyl}-2-methylpiperazin-1-yl)carbonyl]-3-fluorobenzonitrile]
- IC50 [1, 4]: 20 to 50 nM
- IC50 (Jak2 (a.a. 828-1132); [5]): > 100 nM

Molecule: N#CCC(CN1CCCN(S(=O)(=O)c2ccccc2Oc2ccccc2)CC1)n1cc(-c2ncnc3[nH]ccc23)cn1 (stereo not drawn) [Example 113, 4-{4-[(2-phenoxyphenyl)sulfonyl]-1,4-diazepan-1-yl}-3-[4-(7H-pyrrolo[2,3-d]pyrimidin-4-yl)-1H-pyrazol-1-yl]butanenitrile]
- IC50 [1, 4]: 20 to 50 nM
- IC50 (Jak2 (a.a. 828-1132); [5]): > 100 nM

Molecule: N#CCC(CN1CCN(C(=O)c2ccc(F)c(F)c2)CC1)n1cc(-c2ncnc3[nH]ccc23)cn1 (stereo not drawn) [Example 50, 3-(4-(7H-pyrrolo[2,3-d]pyrimidin-4-yl)-1H-pyrazol-1-yl)-4-(4-(3,4-difluorobenzoyl)piperazin-1-yl)butanenitrile]
- IC50 [1, 2]: 10 to 50 nM
- IC50 (Jak2 (a.a. 828-1132); [3]): 10 to 50 nM

Molecule: Cc1cccc(Cl)c1NC(=O)N1CCN(CC(CC#N)n2cc(-c3ncnc4[nH]ccc34)cn2)CC1 (stereo not drawn) [Example 71, 4-(2-(4-(7H-pyrrolo[2,3-d]pyrimidin-4-yl)-1H-pyrazol-1-yl)-3-cyanopropyl)-N-(2-chloro-6-methylphenyl)piperazine-1-carboxamide]
- IC50 [1, 2]: 10 to 50 nM
- IC50 (Jak2 (a.a. 828-1132); [3]): 10 to 50 nM

Molecule: C[C@H]1CN(C(=O)c2ccc(C#N)cc2F)CCN1CC(CC#N)n1cc(-c2ncnc3[nH]ccc23)cn1 (single isomer, unassigned) [25, S-2]
- IC50 [1, 2]: < 10 nM
- IC50 (Jak2 (a.a. 828-1132); [3]): > 100 nM

Molecule: Cn1ccc(S(=O)(=O)N2CCN(CC(CF)n3cc(-c4ncnc5[nH]ccc45)cn3)CC2)n1 (racemic) [Example 10, (±)-4-(1-(1-fluoro-3-(4-(1-methyl-1H-pyrazol-3-ylsulfonyl)piperazin-1-yl)propan-2-yl)-1H-pyrazol-4-yl)-7H-pyrrolo[2,3-d]pyrimidine]
- IC50 [1, 6]: < 10 nM
- IC50 (Jak2 (a.a. 828-1132); [7]): > 20 nM

Molecule: Cc1cc(C(=O)N2CCN(CC(CC#N)n3cc(-c4ncnc5[nH]ccc45)cn3)CC2)ccc1F (stereo not drawn) [Example 37, 3-(4-(7H-pyrrolo[2,3-d]pyrimidin-4-yl)-1H-pyrazol-1-yl)-4-(4-(4-fluoro-3-methylbenzoyl)piperazin-1-yl)butanenitrile]
- IC50 [1, 2]: < 10 nM
- IC50 (Jak2 (a.a. 828-1132); [3]): 10 to 50 nM

Molecule: CCC(CN1CCN(S(=O)(=O)c2ccc(F)cc2C)CC1)n1cc(-c2ncnc3[nH]ccc23)cn1 (stereo not drawn) [Example 143, 4-(1-(1-(4-(4-floro-2-methylphenylsulfonyl)piperazin-1-yl)butan-2-yl)-1H-pyrazol-4-yl)-7H-pyrrolo[2,3-d]pyrimidine]
- IC50 [1, 4]: < 20 nM
- IC50 (Jak2 (a.a. 828-1132); [5]): > 100 nM

Reference: patent publication US9249145B2, “Heterocyclic derivatives of pyrazol-4-yl-pyrrolo[2,3-d]pyrimidines as janus kinase inhibitors” (Incyte Holdings Corporation, priority 2009, dated 2016)
